Publication PMC6420960 (Science translational medicine, 2015)
Entries after “also recorded” stand apart in the source; their conditions may differ. Structures can show the parent of a compound that is named as a salt. Where two headings read alike, the source gives them in different places.

What was measured:
H1-histamine receptor = H1-histamine receptor (Homo sapiens, UniProt P35367); assay: β-arrestin H1-histamine receptor assay; assay type: cell-based
[1] = system: wild-type HCVcc (genotype 2a, JFH-1 strain); assay type: cell-based, Hepatitis C virus; conditions: 10 μM; compared with DMSO treatment
HIV = conditions: cited from earlier work
HCV-Luc [2] = assay: HCV-Luc infection assay; conditions: for EC90: read-out: HCV-Luc EC90; for anti-HCV activity (in words): NPC screen / confirmation assays; for selectivity ratio: human
ATPlite assay = conditions: human, Huh7.5.1 cells
Huh7.5.1 cells [3] = system: Huh7.5.1 cells
wild-type HCVcc = assay type: cell-based, Hepatitis C virus; conditions: primary human hepatocytes; titration, dose-dependent manner
[4] = system: HCV chimeric genotype viruses (1a, 1b, 2a, 2b, 3a, 4a, 5a, 6a, and 7a); assay: HCV chimeric genotype virus infection of Huh7.5.1 cells; assay type: cell-based, Hepatitis C virus; conditions: 10 μM
HCVsc, genotype 2a = assay type: cell-based, Hepatitis C virus; conditions: 10 μM
[5] = system: genotype 1b and 2a HCV replicon cell lines; assay type: cell-based, Hepatitis C virus; conditions: 10 μM
[6] = system: genotype 1a replicon in Huh7.5.1 cells; assay type: cell-based, Hepatitis C virus; conditions: 10 μM
HCVpp genotype 1a and 1b = assay type: cell-based, Hepatitis C virus; conditions: 10 μM; Huh7.5.1 cells
HCV-Luc [7] = assay: Time-of-addition experiment; assay type: cell-based, Hepatitis C virus; conditions: for inhibitory kinetics, time-of-addition profile: bafilomycin A1 10 nM, sofosbuvir 10 μM, 2-hour incubations; for effect on viral level, time of addition: treatment during the attachment step
[8] = system: dengue reporter virus particle; assay: Dengue reporter virus particle; assay type: cell-based; conditions: read-out: EC50 in dengue RVP assay
[9] = Cytotoxicity in the dengue RVP assay; assay type: cell-based
[10] = system: hepatitis B virus, HCV replicon, herpes simplex virus-1, human cytomegalovirus, vaccinia virus, dengue virus, influenza A (H1N1) virus, respiratory syncytial …; assay type: cell-based
HCV-Luc [11] = assay: HCV-Luc assay in 40% human serum; assay type: cell-based, Hepatitis C virus; conditions: read-out: protein binding adjusted EC50
HCV genotype 1b = assay type: in vivo, Alb-uPA/SCID mice engrafted with primary human hepatocytes
Huh7.5.1 cells [12] = system: Huh7.5.1 cells; remark: listed apart in the source
[13] = day 28
[14] = Mouse pharmacokinetics and tissue distribution, single intraperitoneal dose; conditions: for brain levels (in words): (S)-CCZ 50 mg/kg, (S)-nor-CCZ 10 mg/kg, single intraperitoneal dose
[15] = mouse, in vivo, ip, 10 mg/kg
HCV-Luc [16] = assay: In vitro combination evaluation; conditions: for CalcuSyn CI value: in combination with (S)-CCZ at or near their EC50 values; for MacSynergy Log volume: in combination with (S)-CCZ, Bliss independence model
[17] = Microsomal stability assay, human microsomes; assay type: in vitro ADME
[18] = Microsomal stability assay, mouse microsomes; assay type: in vitro ADME
[19] = read-out: HCV-Luc EC50, Huh7.5.1 cells, luciferase signal 48 hours after treatment
[20] = Huh7.5.1 cells, luciferase signal 48 hours after treatment

H1-histamine receptor, sequence (P35367 whole entry): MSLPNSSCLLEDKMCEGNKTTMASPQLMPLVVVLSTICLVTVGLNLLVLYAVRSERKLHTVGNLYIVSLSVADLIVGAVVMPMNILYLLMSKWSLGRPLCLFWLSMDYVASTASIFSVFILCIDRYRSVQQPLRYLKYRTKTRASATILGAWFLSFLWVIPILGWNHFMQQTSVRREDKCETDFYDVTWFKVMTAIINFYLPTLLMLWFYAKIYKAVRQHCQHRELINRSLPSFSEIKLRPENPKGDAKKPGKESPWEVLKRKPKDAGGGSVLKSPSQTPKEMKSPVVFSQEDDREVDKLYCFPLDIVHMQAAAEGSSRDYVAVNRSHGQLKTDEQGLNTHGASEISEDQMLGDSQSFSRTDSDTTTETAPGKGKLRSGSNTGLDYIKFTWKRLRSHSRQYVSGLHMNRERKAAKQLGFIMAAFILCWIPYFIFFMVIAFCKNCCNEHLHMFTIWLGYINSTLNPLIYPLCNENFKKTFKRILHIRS

## CN1CCN(C(c2ccccc2)c2ccc(Cl)cc2)CC1 (racemic) [Racemic CCZ, chlorcyclizine HCl]
H1-histamine receptor
  Antihistamine activity at 10 nM: 72.60%
[1]
  Intracellular and extracellular viral RNA levels: significantly reduced
HIV
  activity against HIV: reported activity against HIV
HCV-Luc [2]; Hepatitis C virus
  EC50: ~50 nM
HCV-Luc [2]; Hepatitis C virus, Huh-7.5.1, 48 h, read-out: HCV-Luc EC50
  EC50: 44 ± 11 nM
HCV-Luc [2]; Hepatitis C virus, Huh-7.5.1, 48 h
  EC90: 1400 ± 450 nM
ATPlite assay
  CC50: 49.8 ± 17.2 µM

## CN1CCN([C@H](c2ccccc2)c2ccc(Cl)cc2)CC1 [(R)-CCZ]
H1-histamine receptor
  Antihistamine activity at 10 nM: 88.00%
[1]
  Intracellular and extracellular viral RNA levels: significantly reduced
Huh7.5.1 cells [3]
  CC50: 37.5 ± 4.15 µM
HCV-Luc [2]; [19]
  EC50: 20 ± 5 nM
HCV-Luc [2]; [20]
  EC90: 1090 ± 370 nM

## CN1CCN([C@@H](c2ccccc2)c2ccc(Cl)cc2)CC1 [(S)-CCZ]
H1-histamine receptor
  Antihistamine activity at 10 nM: 41.70%
[1]
  Intracellular and extracellular viral RNA levels: significantly reduced
wild-type HCVcc
  intracellular HCV RNA level: inhibited
[4]
  extracellular HCV RNA levels and infectivity (TCID50/ml): inhibited
HCVsc, genotype 2a
  inhibitory activity in the HCVsc assay: strong inhibitory activity
[5]
  inhibitory effect on HCV replicon: did not exert a significant inhibitory effect
[6]
  HCV replication, transient replicon: not inhibited
HCVpp genotype 1a and 1b
  inhibitory effect on HCVpp entry: no significant inhibitory effect
HCV-Luc [7]; added 2 or 3 hours after entry
  inhibition of infection, time of addition: no significant inhibition
HCV-Luc [7]; added 1 hour after synchronous entry
  inhibition of infection, time of addition: Less inhibitory effect
HCV-Luc [7]; added during viral attachment at 4°C for 2 hours or during the first 2 hours of synchronous entry at 37°C
  inhibition of infection, time of addition: potent inhibition
[8]
  EC50: 1880 nM
[9]
  CC50: > 31.6 µM
[10]
  antiviral activity in NIAID antiviral screen: little or no antiviral activity
HCV-Luc [11]
  EC50: 240 nM
HCV genotype 1b; 2 mg/kg daily for 4 weeks
  decrease of genotype 1b virus titer: about 1 log
HCV genotype 1b; 50 and 10 mg/kg daily for 4 weeks, genotype 1b
  reduction of HCV titers from pretreatment baseline: 2 log
HCV genotype 1b; genotype 1b and 2a infections
  HCV titers during the treatment period (drug resistance): without rebound
Huh7.5.1 cells [3]
  CC50: 33.4 ± 2.44 µM
Huh7.5.1 cells [12]; 10 μM
  cytotoxicity after continuous treatment for 21 days: low cytotoxicity
Huh7.5.1 cells [12]; 1.0 and 5.0 μM
  cytotoxicity after continuous treatment for 21 days: no cytotoxicity
[13]; 2 mg/kg group
  liver to plasma ratio: 38
[13]; 10 mg/kg group
  liver to plasma ratio: 41
[13]; (S)-CCZ dose of 2 mg/kg
  liver concentration: 0.342 µM
[13]; (S)-CCZ dose of 10 mg/kg
  liver concentration: 2.66 µM
HCV-Luc [2]; [19]
  EC50: 24 ± 9 nM
HCV-Luc [2]; [20]
  EC90: 1440 ± 430 nM
[14]; 50 mg/kg intraperitoneal, assuming liver density 1.0 g/ml
  ratio of liver to plasma: 29.6
[14]
  brain levels (in words): comparable to liver levels

## Clc1ccc([C@H](c2ccccc2)N2CCNCC2)cc1 [(S)-Nor-CCZ]
H1-histamine receptor
  Antihistamine activity at 10 nM: 2.24%
Huh7.5.1 cells [3]
  CC50: 9.31 ± 0.04 µM
[15]
  T1/2 compared to (S)-CCZ (in words): longer T1/2
[13]; (S)-CCZ dose of 2 mg/kg
  liver concentration: 3.16 µM
[13]; (S)-CCZ dose of 10 mg/kg
  liver concentration: 12.1 µM
HCV-Luc [2]; [19]
  EC50: 34 ± 12 nM
HCV-Luc [2]; [20]
  EC90: 578 ± 99 nM
[14]; 10 mg/kg intraperitoneal
  ratio of average concentration in liver to plasma: 60.7
[14]
  brain levels (in words): comparable to liver levels

## CO/C1=C\C(C)=C\[C@@H](C)[C@@H](O)[C@@H](C)C/C(C)=C/C=C/[C@H](OC)[C@@H]([C@@H](C)[C@@H](O)[C@H](C)[C@@]2(O)C[C@@H](O)[C@H](C)[C@@H](C(C)C)O2)OC1=O [Bafilomycin A1]
HCV-Luc [7]
  inhibitory kinetics, time-of-addition profile: only showed significant inhibitory effect when added during the first 2 hours of synchronous entry
  effect on viral level, time of addition: no effect on viral level

## CC(C)(C)NC(=O)N[C@H](C(=O)N1C[C@H]2[C@@H]([C@H]1C(=O)NC(CC1CCC1)C(=O)C(N)=O)C2(C)C)C(C)(C)C (stereo partly shown) [Boceprevir]
HCV-Luc [16]
  CalcuSyn CI value: 0.691 ± 0.114
  MacSynergy Log volume: +++ (strong synergy (log volume ≥ 9))

## O=C(O)COCCN1CCN(C(c2ccccc2)c2ccc(Cl)cc2)CC1 (stereo not shown) [Cetirizine]
HCV-Luc [2]
  anti-HCV activity (in words): not active

## CN1CCN(C(c2ccccc2)c2ccccc2)CC1 [Cyclizine]
HCV-Luc [2]; relative to CCZ
  lower activity than CCZ: 10 fold

## COC(=O)N[C@H](C(=O)N1CCC[C@H]1c1nc(-c2ccc(-c3ccc(-c4c[nH]c([C@@H]5CCCN5C(=O)[C@@H](NC(=O)OC)C(C)C)n4)cc3)cc2)c[nH]1)C(C)C [Daclatasvir]
HCV-Luc [16]
  CalcuSyn CI value: 0.427 ± 0.142
  MacSynergy Log volume: +++ (strong synergy (log volume ≥ 9))

## NCCc1c[nH]cn1 [Histamine]
HCV-Luc [2]
  anti-HCV activity (in words): no anti-HCV activity; also recorded: no effect on HCV infection

## O[C@H]1[C@H]2c3cc4c(cc3CN3CCC(=C[C@@H]1O)[C@H]23)OCO4 [Lycorine-HCl, reference compound]
[8]
  EC50: 40.6 nM
[9]
  CC50: > 31.6 µM

## NC(=O)c1ncn([C@@H]2O[C@H](CO)[C@@H](O)[C@H]2O)n1 [Ribavirin]
HCV-Luc [16]
  CalcuSyn CI value: 0.630 ± 0.106
  MacSynergy Log volume: +++ (strong synergy (log volume ≥ 9))

## CC(C)OC(=O)[C@H](C)N[P@](=O)(OC[C@H]1O[C@@H](n2ccc(=O)[nH]c2=O)[C@](C)(F)[C@@H]1O)Oc1ccccc1 [Sofosbuvir]
HCV-Luc [7]
  inhibitory kinetics, time-of-addition profile: inhibited HCVcc infection when added at all the time points except during the attachment stage
  effect on viral level, time of addition: no effect on viral level
HCV-Luc [16]
  CalcuSyn CI value: 0.362 ± 0.075
  MacSynergy Log volume: +++ (strong synergy (log volume ≥ 9))

## CCC[C@H](NC(=O)[C@@H]1[C@H]2CCC[C@H]2CN1C(=O)[C@@H](NC(=O)[C@@H](NC(=O)c1cnccn1)C1CCCCC1)C(C)(C)C)C(=O)C(=O)NC1CC1 [Telaprevir]
HCV-Luc [16]
  CalcuSyn CI value: 0.426 ± 0.138
  MacSynergy Log volume: +++ (strong synergy (log volume ≥ 9))

## NC(=O)COCCN1CCN(C(c2ccccc2)c2ccc(Cl)cc2)CC1 (stereo not shown) [cetirizine amide]
HCV-Luc [2]; [19]
  EC50: 103 nM

## Clc1ccc(Cn2c(CN3CCCC3)nc3ccccc32)cc1 [clemizole]
HCV-Luc [2]
  anti-HCV activity (in words): much less potent activity

## CN1CCCN(C(c2ccccc2)c2ccc(Cl)cc2)CC1 (stereo not shown) [homochlorcyclizine]
HCV-Luc [2]; Hepatitis C virus
  EC50: ~50 nM
HCV-Luc [2]
  selectivity ratio: 318 to 924

## OCCOCCN1CCN(C(c2ccccc2)c2ccc(Cl)cc2)CC1 (stereo not shown) [hydroxyzine]
HCV-Luc [2]; Hepatitis C virus
  EC50: ~50 nM
HCV-Luc [2]
  selectivity ratio: 318 to 924

## Clc1ccc(C(c2ccccc2)N2CCNCC2)cc1 (stereo not shown) [nor-CCZ, nor-chlorcyclizine]
[17]
  half-life: > 100 min
[18]
  T1/2 in mice (microsomes) relative to CCZ: more than fourfold longer
Huh7.5.1 cells [3]
  cytotoxicity compared with CCZ (in words): higher cytotoxicity
HCV-Luc [2]
  anti-HCV activity (in words): comparable to that of CCZ
  selectivity ratio: 188

## IFN-α
HCV-Luc [16]
  CalcuSyn CI value: 0.609 ± 0.128
  MacSynergy Log volume: +++ (strong synergy (log volume ≥ 9))
